According to ChEMBL document CHEMBL3044795, “Synthesis and biological evaluation of novel benzoquinones as potential antimicrobial agents” (2013):
≈ marks a conversion by molar mass, not a printed value.

Legend:
Type in all cases: functional
Candida albicans [1] = assay: Antifungal activity against Candida albicans DSM 70014 assessed as diamater of growth inhibition zone after 48 hr by agar cup diffusion method
Pseudomonas aeruginosa [2] = assay: Antibacterial activity against Pseudomonas aeruginosa ATCC 10145 assessed as growth inhibition after 24 hr by two-fold serial dilution method; details: ATCC 10145, 24 h
Candida albicans [3] = assay: Antifungal activity against Candida albicans DSM 70014 assessed as growth inhibition after 48 hr; details: DSM 70014, 48 h
Escherichia coli [4] = assay: Antibacterial activity against Escherichia coli ATCC 11775 assessed as growth inhibition after 24 hr by two-fold serial dilution method; details: ATCC 11775, 24 h
Pseudomonas aeruginosa [5] = assay: Antibacterial activity against Pseudomonas aeruginosa ATCC 10145 assessed as growth inhibition after 24 hr; details: ATCC 10145, 24 h
Staphylococcus aureus [6] = assay: Antibacterial activity against Staphylococcus aureus DSM 1104 assessed as growth inhibition after 24 hr by two fold serial dilution method; details: DSM 1104, 24 h
Pseudomonas aeruginosa [7] = assay: Antibacterial activity against Pseudomonas aeruginosa ATCC 10145 assessed as diamater of growth inhibition zone after 24 hr by agar cup diffusion method
Escherichia coli [8] = assay: Antibacterial activity against Escherichia coli ATCC 11775 assessed as growth inhibition after 24 hr; details: ATCC 11775, 24 h
Bacillus subtilis [9] = assay: Antibacterial activity against Bacillus subtilis ATCC 6633 assessed as growth inhibition after 24 hr by two fold serial dilution method; details: ATCC 6633, 24 h
Escherichia coli [10] = assay: Antibacterial activity against Escherichia coli ATCC 11775 assessed as diamater of growth inhibition zone after 24 hr by agar cup diffusion method
Bacillus subtilis [11] = assay: Antibacterial activity against Bacillus subtilis ATCC 6633 assessed as growth inhibition after 24 hr; details: ATCC 6633, 24 h
Candida albicans [12] = assay: Antifungal activity against Candida albicans DSM 70014 assessed as growth inhibition after 48 hr by two-fold serial dilution method; details: DSM 70014, 48 h
Staphylococcus aureus [13] = assay: Antibacterial activity against Staphylococcus aureus DSM 1104 assessed as growth inhibition after 24 hr; details: DSM 1104, 24 h
Bacillus subtilis [14] = assay: Antibacterial activity against Bacillus subtilis ATCC 6633 assessed as diamater of growth inhibition zone after 24 hr by agar cup diffusion method
Staphylococcus aureus [15] = assay: Antibacterial activity against Staphylococcus aureus DSM 1104 assessed as diamater of growth inhibition zone after 24 hr by agar cup diffusion method

MIC (Pseudomonas aeruginosa [2]) [µg/mL] | MIC (Escherichia coli [4]) [µg/mL] | MIC (Staphylococcus aureus [6]) [µg/mL] | MIC (Bacillus subtilis [9]) [µg/mL] | MIC (Candida albicans [12]) [µg/mL] | Compound | diameter of the inhibition zone (DIZ) (Candida albicans [1]) [mm] | MFC (Candida albicans [3]) [µg/mL] | MBC (Pseudomonas aeruginosa [5]) [µg/mL] | diameter of the inhibition zone (DIZ) (Pseudomonas aeruginosa [7]) [mm] | MBC (Escherichia coli [8]) [µg/mL] | diameter of the inhibition zone (DIZ) (Escherichia coli [10]) [mm] | MBC (Bacillus subtilis [11]) [µg/mL] | MBC (Staphylococcus aureus [13]) [µg/mL] | diameter of the inhibition zone (DIZ) (Bacillus subtilis [14]) [mm] | diameter of the inhibition zone (DIZ) (Staphylococcus aureus [15]) [mm]
100 (≈ 208 µM) | 100 (≈ 208 µM) | 25 (≈ 52.1 µM) | 100 (≈ 208 µM) | 50 (≈ 104 µM) | COc1ccc(OC)c(/C=N/N=c2\scc(C3=CC(=O)C=CC3=O)n2-c2ccc(Cl)cc2)c1 | 14 | 100 (≈ 208 µM) | 100 (≈ 208 µM) | 16 | 100 (≈ 208 µM) | 13 | 100 (≈ 208 µM) | 50 (≈ 104 µM) | 14 | 14
50 (≈ 107 µM) | 100 (≈ 215 µM) | 100 (≈ 215 µM) | 100 (≈ 215 µM) | 50 (≈ 107 µM) | COc1cc(/C=N/N=c2\scc(C3=CC(=O)C=CC3=O)n2-c2ccc(Cl)cc2)ccc1O | 15 | 50 (≈ 107 µM) | 100 (≈ 215 µM) | 15 | 100 (≈ 215 µM) | 16 | 100 (≈ 215 µM) | 100 (≈ 215 µM) | 14 | 16
50 (≈ 107 µM) | 25 (≈ 53.7 µM) | 50 (≈ 107 µM) | 25 (≈ 53.7 µM) | 12.5 (≈ 26.8 µM) | COc1ccc(/C=N/N=c2\scc(C3=CC(=O)C=CC3=O)n2-c2ccc(Cl)cc2)cc1O | 15 | 25 (≈ 53.7 µM) | 50 (≈ 107 µM) | 14 | 50 (≈ 107 µM) | 14 | 50 (≈ 107 µM) | 50 (≈ 107 µM) | 14 | 13
50 (≈ 112 µM) | 50 (≈ 112 µM) | 25 (≈ 55.9 µM) | 50 (≈ 112 µM) | 50 (≈ 112 µM) | COc1cc(/C=N/N=c2\scc(-c3cc(O)ccc3O)n2-c2ccc(C)cc2)ccc1O | 12 | 50 (≈ 112 µM) | 100 (≈ 223 µM) | 16 | 100 (≈ 223 µM) | 14 | 50 (≈ 112 µM) | 50 (≈ 112 µM) | 15 | 15
50 (≈ 111 µM) | 25 (≈ 55.3 µM) | 100 (≈ 221 µM) | 50 (≈ 111 µM) | 50 (≈ 111 µM) | COc1ccc(/C=N/N=c2\scc(-c3cc(O)ccc3O)n2-c2ccc(Cl)cc2)cc1 | 15 | 50 (≈ 111 µM) | 50 (≈ 111 µM) | 12 | 50 (≈ 111 µM) | 14 | 50 (≈ 111 µM) | 100 (≈ 221 µM) | 14 | 15
50 (≈ 104 µM) | 25 (≈ 51.9 µM) | 50 (≈ 104 µM) | 50 (≈ 104 µM) | 50 (≈ 104 µM) | COc1ccc(OC)c(/C=N/N=c2\scc(-c3cc(O)ccc3O)n2-c2ccc(Cl)cc2)c1 | 13 | 100 (≈ 207 µM) | 50 (≈ 104 µM) | 16 | 50 (≈ 104 µM) | 18 | 50 (≈ 104 µM) | 100 (≈ 207 µM) | 15 | 13
100 (≈ 214 µM) | 100 (≈ 214 µM) | 50 (≈ 107 µM) | 50 (≈ 107 µM) | 100 (≈ 214 µM) | COc1cc(/C=N/N=c2\scc(-c3cc(O)ccc3O)n2-c2ccc(Cl)cc2)ccc1O | 14 | 100 (≈ 214 µM) | 100 (≈ 214 µM) | 14 | 100 (≈ 214 µM) | 15 | 50 (≈ 107 µM) | 50 (≈ 107 µM) | 16 | 16
– | – | – | – | 5 (≈ 14.5 µM) | Clc1ccccc1C(c1ccccc1)(c1ccccc1)n1ccnc1 [CLOTRIMAZOLE] | – | – | – | – | – | – | – | – | – | –

Compound | MIC (Pseudomonas aeruginosa [2]) [µg/mL] | MIC (Escherichia coli [4]) [µg/mL] | MIC (Staphylococcus aureus [6]) [µg/mL] | MIC (Bacillus subtilis [9]) [µg/mL] | MIC (Candida albicans [12]) [µg/mL] | diameter of the inhibition zone (DIZ) (Candida albicans [1]) [mm] | MFC (Candida albicans [3]) [µg/mL] | MBC (Pseudomonas aeruginosa [5]) [µg/mL] | diameter of the inhibition zone (DIZ) (Pseudomonas aeruginosa [7]) [mm] | MBC (Escherichia coli [8]) [µg/mL] | diameter of the inhibition zone (DIZ) (Escherichia coli [10]) [mm] | MBC (Bacillus subtilis [11]) [µg/mL] | MBC (Staphylococcus aureus [13]) [µg/mL] | diameter of the inhibition zone (DIZ) (Bacillus subtilis [14]) [mm] | diameter of the inhibition zone (DIZ) (Staphylococcus aureus [15]) [mm]
CC1(C)S[C@@H]2[C@H](NC(=O)[C@H](N)c3ccccc3)C(=O)N2[C@H]1C(=O)O.O.O.O [AMPICILLIN TRIHYDRATE] | 50 | 10 | 5 | 12.5 | – | – | – | – | – | – | – | – | – | – | –
